Data published in paper PMC4973850, “Molecular structure‐function relationship of dietary polyphenols for inhibiting VEGF‐induced VEGFR‐2 activity” (Molecular Nutrition & Food Research, 2015).
One block for each compound: values may come before it.

Target: T1, VEGF (human recombinant VEGFA165); VEGF‐induced VEGFR‐2 activation in HUVECs (Homo sapiens, UniProt P15692)
T1 construct: purchased R&D Systems, Abingdon, UK
T1 sequence (P15692 1-191 isoform P15692-4): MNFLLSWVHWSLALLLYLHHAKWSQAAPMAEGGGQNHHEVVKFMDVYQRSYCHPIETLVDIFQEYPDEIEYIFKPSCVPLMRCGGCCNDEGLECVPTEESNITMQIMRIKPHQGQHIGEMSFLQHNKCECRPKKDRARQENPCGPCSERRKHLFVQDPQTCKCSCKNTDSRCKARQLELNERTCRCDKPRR
Experiment: Inhibition of VEGF‐induced VEGFR‐2 phosphorylation in HUVECs after pre‐incubating VEGF with polyphenol (Phospho‐VEGFR‐2 Tyr1175 ELISA);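 further: sandwich ELISA of VEGFR-2 phosphorylated at Tyr1175 in lysates of confluent HUVECs, with VEGF alone and DMSO vehicle (≤0.1%) as control incubations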
Type: cell-based
Conditions: for Inhibition (%): HUVECs; for IC50 (μM) / IC50: VEGF 25 ng/mL pre‐incubated 5 min with polyphenol, then HUVECs 5 min, phospho‐VEGFR‐2 ELISA, 95% confidence intervals in parentheses

Inhibition (%) (at 100 μM polyphenol): Ineffective (100 μM)
SMILES: COC(=O)c1cc(O)c(O)c(O)c1 [Methyl gallate]

IC50 (μM): 9.341 (7.749–11.26) μM
SMILES: O=c1c(O)c(-c2ccc(O)cc2)oc2cc(O)cc(O)c12 [Kaempferol]

SMILES: O=c1c(O)c(-c2ccc(O)c(O)c2)oc2cc(O)c(O)c(O)c12 [Quercetagetin]
IC50 (μM): 0.096 (0.083–0.109) μM
fold more potent VEGF inhibitor than quercetin (ratio of IC50 values): sevenfold

SMILES: Oc1cc(O)c2c(c1)O[C@H](c1cc(O)c(O)c(O)c1)[C@H](O)C2 [EGC, epigallocatechin]
IC50 (μM): 42.9 (36.96–49.97) μM

Inhibition (%) (at 100 μM polyphenol): 12.3 (100 μM) %
SMILES: O=C1c2c(O)cc(O)cc2O[C@H](c2ccc(O)c(O)c2)[C@H]1O [Taxifolin]

SMILES: COc1cc(-c2oc3cc(O)cc(O)c3c(=O)c2O)ccc1O [Isorhamnetin]
IC50 (μM): 9.053 (7.676–10.68) μM
fold higher IC50 than quercetin (ratio of IC50 values): 12 fold

Inhibition (%) (at 50 μM polyphenol): 32%
SMILES: O=C(O)c1cc(O)c(O)c(O)c1 [Gallic acid]

Inhibition (%) (at 50 μM polyphenol): 22%
SMILES: O=c1c(-c2ccc(O)cc2)coc2cc(O)cc(O)c12 [Genistein]

IC50 (μM): 7.46 (6.592–8.446) μM
SMILES: O=c1cc(-c2ccc(O)c(O)c2)oc2cc(O)cc(O)c12 [Luteolin]

Inhibition (%) (at 50 μM polyphenol): Ineffective
SMILES: O=C(/C=C/c1ccc(O)c(O)c1)O[C@@H]1C[C@](O)(C(=O)O)C[C@@H](O)[C@H]1O [Chlorogenic acid]

SMILES: O=c1c(O)c(-c2ccc(O)cc2O)oc2cc(O)cc(O)c12 [Morin]
IC50 (μM): 1.482 (1.357–1.618) μM
fold higher IC50 than quercetin (ratio of IC50 values): about 2 fold

Inhibition (%) (at 50 μM polyphenol): 85%
SMILES: O=c1c(O)c(-c2ccccc2)oc2cc(O)cc(O)c12 [Galangin]

Inhibition (%) (at 100 μM polyphenol): 52.8 (100 μM) %
SMILES: O=c1c(O)c(-c2ccccc2)oc2ccccc12 [3‐hydroxyflavone]

Inhibition (%) (at 50 μM polyphenol): 28%
SMILES: OC[C@H]1O[C@@H](Oc2cc(O)cc(/C=C/c3ccc(O)cc3)c2)[C@H](O)[C@@H](O)[C@@H]1O [Piceid]

IC50 (μM): 214.7 (178. 2–258.7) μM
IC50 (listed as (+)‐catechin): 215000 nM
SMILES: Oc1cc(O)c2c(c1)O[C@H](c1ccc(O)c(O)c1)[C@@H](O)C2 [(+)‐Catechin]

Inhibition (%) (at 50 μM polyphenol): Ineffective
Inhibition (%) (at 50 μM polyphenol, listed as hyperoside): completely ineffective
SMILES: O=c1c(O[C@@H]2O[C@H](CO)[C@H](O)[C@H](O)[C@H]2O)c(-c2ccc(O)c(O)c2)oc2cc(O)cc(O)c12 [Hyperoside]

SMILES: C[C@@H]1O[C@@H](Oc2c(-c3ccc(O)c(O)c3)oc3cc(O)cc(O)c3c2=O)[C@H](O)[C@H](O)[C@H]1O [Quercitrin]
Inhibition (%) (at 50 μM polyphenol): Ineffective
Inhibition (%) (at 50 μM polyphenol, listed as quercitrin): completely ineffective

Inhibition (%) (at 50 μM polyphenol): Ineffective
Inhibition (%) (at 50 μM polyphenol, listed as phloridzin): completely ineffective
SMILES: O=C(CCc1ccc(O)cc1)c1c(O)cc(O)cc1O[C@@H]1O[C@H](CO)[C@@H](O)[C@H](O)[C@H]1O [Phloridzin]

Inhibition (%) (at 200 μM polyphenol (highest concentration tested)): Ineffective (200 μM)
Inhibition (%) (at 200 μM polyphenol (highest concentration tested), listed as (−)‐epicatechin): not an inhibitor
Inhibition (%) (at 200 μM polyphenol (highest concentration tested), listed as epicatechin): ineffective
SMILES: Oc1cc(O)c2c(c1)O[C@H](c1ccc(O)c(O)c1)[C@H](O)C2 [(−)‐Epicatechin]

IC50: 1050 nM
IC50 (μM): 1.053 (0.764–1.453) μM
log IC50 (datapoint of Fig. 3B): 0.022
fold lower IC50 compared with (+)‐catechin (ratio of IC50 values): 200 fold
SMILES: Oc1cc(O)c2cc(O)c(-c3ccc(O)c(O)c3)[o+]c2c1 [Cyanidin]

Inhibition (%) (at 50 μM polyphenol): Ineffective
Inhibition (%) (at 50 μM polyphenol, listed as hirsutrin): completely ineffective
SMILES: O=c1c(O[C@@H]2O[C@H](CO)[C@@H](O)[C@H](O)[C@H]2O)c(-c2ccc(O)c(O)c2)oc2cc(O)cc(O)c12 [Hirsutrin]

IC50 (μM): 0.088 (0.078–0.100) μM
SMILES: O=C(O[C@@H]1Cc2c(O)cc(O)cc2O[C@@H]1c1cc(O)c(O)c(O)c1)c1cc(O)c(O)c(O)c1 [EGCG, epigallocatechin gallate]
fold lower IC50 than ECG (ratio of IC50 values): 2 fold

SMILES: O=c1cc(-c2ccccc2)oc2cc(O)ccc12 [7‐hydroxyflavone]
Inhibition (%) (at 100 μM polyphenol): Ineffective (100 μM)

SMILES: O=C1C[C@@H](c2ccc(O)c(O)c2)Oc2cc(O)cc(O)c21 [Eriodictyol]
Inhibition (%) (at 50 μM polyphenol): 20%

IC50 (μM): 3.311 (3.047–3.598) μM
IC50 (listed as orobol): 3310 nM
fold lower IC50 compared with luteolin (ratio of IC50 values): 2 fold
SMILES: O=c1c(-c2ccc(O)c(O)c2)coc2cc(O)cc(O)c12 [Orobol]

SMILES: O=c1c(O)c(-c2ccc(O)c(O)c2)oc2cc(O)cc(O)c12 [Quercetin]
IC50 (μM): 0.754 (0.674–0.842) μM
IC50 (listed as quercetin): 750 nM
fold lower IC50 compared with (+)‐catechin (ratio of IC50 values): > 250 fold
fold lower IC50 compared with luteolin (ratio of IC50 values): 10 fold

SMILES: O=c1c(O)c(-c2cc(O)c(O)c(O)c2)oc2cc(O)cc(O)c12 [Myricetin]
IC50 (μM): 0.121(0.102–0.144) μM
fold lower IC50 than EGC (ratio of IC50 values): > 300 fold

Inhibition (%) (at 100 μM polyphenol): 100 (100 μM) %
SMILES: COc1ccc(-c2oc3cc(O)cc(O)c3c(=O)c2O)cc1O [Tamarixetin]

Inhibition (%) (at 100 μM polyphenol): Ineffective (100 μM)
Inhibition (%) (at 100 μM polyphenol, listed as sinensetin): inhefective
SMILES: COc1ccc(-c2cc(=O)c3c(OC)c(OC)c(OC)cc3o2)cc1OC [Sinensetin]

Inhibition (%) (at 100 μM polyphenol): Ineffective (100 μM)
Inhibition (%) (at 100 μM polyphenol, listed as flavone): ineffective
SMILES: O=c1cc(-c2ccccc2)oc2ccccc12 [Flavone]

Inhibition (%) (at 50 μM polyphenol): Ineffective
SMILES: O=C(O)/C=C/c1ccc(O)c(O)c1 [Caffeic acid]

Inhibition (%) (at 50 μM polyphenol): Ineffective
Inhibition (%) (at 50 μM polyphenol, listed as rutin): completely ineffective
SMILES: C[C@@H]1O[C@@H](OC[C@H]2O[C@@H](Oc3c(-c4ccc(O)c(O)c4)oc4cc(O)cc(O)c4c3=O)[C@H](O)[C@@H](O)[C@@H]2O)[C@H](O)[C@H](O)[C@H]1O [Rutin]

Inhibition (%) (at 50 μM polyphenol): 66%
SMILES: O=C1c2ccc(O)cc2O[C@H](c2cc(O)c(O)c(O)c2)[C@H]1O [(+)‐Dihydrorobinetin]

Inhibition (%) (at 100 μM polyphenol): 58.6 (100 μM) %
SMILES: O=c1cc(-c2ccccc2)oc2cc(O)cc(O)c12 [Chrysin]

IC50 (μM): 0.547 (0.527–0.568) μM
SMILES: COc1cc(O)c2c(=O)c(O)c(-c3ccc(O)c(O)c3)oc2c1 [Rhamnetin]

IC50 (μM): 0.16 (0.150–0.183) μM
SMILES: O=C(O[C@@H]1Cc2c(O)cc(O)cc2O[C@@H]1c1ccc(O)c(O)c1)c1cc(O)c(O)c(O)c1 [ECG, epicatechin gallate]

Inhibition (%) (at 100 μM polyphenol): 63.2 (100 μM) %
SMILES: O=c1cc(-c2ccc(O)c(O)c2)oc2c(O)c(O)ccc12 [3′,4′,7,8‐tetrahydroxyflavone]

Inhibition (%) (at 100 μM polyphenol): 88.5 (100 μM) %
SMILES: O=C1C[C@@H](c2ccc(O)cc2)Oc2cc(O)cc(O)c21 [Naringenin]
